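Interpolation was linear, between the two tested concentrations surrounding the appropriate level; five concentrations were tested over 48 hours in 96-well plates. GI50 = concentration required for 50% inhibition of growth.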 Active and inactive are the calls of the source. No stated cut-off is given here; in the data, active = GI50 up to about 1.1 µM and inactive = higher.
Legend:
Assay in all cases: growth of human tumour cells (NCI), 48 h
786-0 = test system: 786-0
A549 = test system: A549
BT-549 = test system: BT-549
HCC 2998 = test system: HCC 2998
KM12 = test system: KM12
LOX IMVI = test system: LOX IMVI
M14 = test system: M14
MDA-MB-435 = test system: MDA-MB-435
NCI-H226 = test system: NCI-H226
OVCAR-4 = test system: OVCAR-4
RXF 393 = test system: RXF 393
SF-539 = test system: SF-539
SK-MEL-2 = test system: SK-MEL-2
SK-OV-3 = test system: SK-OV-3
SNB-19 = test system: SNB-19
SNB-75 = test system: SNB-75
TK-10 = test system: TK-10
U-251 = test system: U-251
UACC-62 = test system: UACC-62
UO-31 = test system: UO-31

Measured: GI50

O=C(O)CNCc1c2ccccc2nc2ccccc12
inactive: 786-0 36 µM | A549 43.4 µM | BT-549 33.4 µM | HCC 2998 58.6 µM | KM12 32.3 µM | LOX IMVI 28.3 µM | M14 47.6 µM | MDA-MB-435 36.6 µM | NCI-H226 52.1 µM | OVCAR-4 31.7 µM | RXF 393 32.4 µM | SF-539 29.9 µM | SK-MEL-2 50.8 µM | SK-OV-3 > 76.4 µM | SNB-19 74 µM | SNB-75 32.8 µM | TK-10 61.9 µM | U-251 60 µM | UACC-62 44.7 µM | UO-31 25.2 µM

O=C1NC(S(=O)(=O)O)=NNC12c1ccccc1-c1ccccc12
inactive: 786-0 > 10 µM | A549 > 10 µM | BT-549 > 10 µM | HCC 2998 > 10 µM | KM12 > 10 µM | LOX IMVI > 10 µM | M14 > 10 µM | MDA-MB-435 > 10 µM | NCI-H226 > 10 µM | OVCAR-4 > 10 µM | RXF 393 > 10 µM | SF-539 > 10 µM | SK-OV-3 > 10 µM | SNB-19 > 10 µM | SNB-75 > 10 µM | TK-10 > 10 µM | UACC-62 > 10 µM | UO-31 > 10 µM

CC(C)NC(=O)OCc1c(COC(=O)NC(C)C)c(-c2cc[n+](COC(=O)C(C)C)cc2)n2c1CCC2
inactive: 786-0 28 µM | A549 > 100 µM | BT-549 > 100 µM | HCC 2998 > 100 µM | KM12 > 100 µM | LOX IMVI > 50.7 µM | M14 99.5 µM | MDA-MB-435 > 100 µM | NCI-H226 > 100 µM | OVCAR-4 > 100 µM | RXF 393 21 µM | SF-539 17.7 µM | SK-MEL-2 > 100 µM | SK-OV-3 98.4 µM | SNB-19 > 100 µM | SNB-75 > 53.5 µM | TK-10 41.5 µM | U-251 > 100 µM | UACC-62 48.9 µM | UO-31 > 100 µM

CC(C)N/C(=N\C#N)NS(=O)(=O)c1cnccc1NC1CCCCCCC1
inactive: 786-0 > 100 µM | A549 > 100 µM | BT-549 > 100 µM | HCC 2998 > 100 µM | KM12 > 100 µM | M14 > 100 µM | MDA-MB-435 > 100 µM | NCI-H226 > 100 µM | OVCAR-4 > 100 µM | RXF 393 > 100 µM | SK-MEL-2 > 100 µM | SK-OV-3 > 100 µM | SNB-19 > 100 µM | SNB-75 > 100 µM | TK-10 > 100 µM | U-251 > 100 µM | UACC-62 > 100 µM | UO-31 > 100 µM

Cc1nnc(N2C(=O)C(=Cc3ccc(Cl)cc3)N=C2c2ccc(Cl)cc2)nc1/C=C\c1ccc(N(C)C)cc1
inactive: 786-0 > 100 µM | A549 > 100 µM | BT-549 > 100 µM | HCC 2998 > 100 µM | KM12 > 100 µM | LOX IMVI > 100 µM | M14 83.6 µM | MDA-MB-435 > 100 µM | NCI-H226 > 100 µM | OVCAR-4 > 100 µM | RXF 393 > 100 µM | SK-MEL-2 > 100 µM | SK-OV-3 > 100 µM | SNB-19 > 100 µM | SNB-75 > 100 µM | TK-10 > 100 µM | U-251 > 100 µM | UACC-62 > 100 µM | UO-31 50.8 µM

COC(=O)c1cc(C)ccc1CC(Cc1ccccc1C)C(=O)OC (stereo not given)
inactive: 786-0 89.5 µM | A549 51.6 µM | BT-549 61.7 µM | HCC 2998 34.9 µM | KM12 23.8 µM | LOX IMVI 12.5 µM | M14 29.6 µM | MDA-MB-435 18.1 µM | NCI-H226 81.7 µM | OVCAR-4 29.7 µM | RXF 393 26.9 µM | SF-539 > 100 µM | SK-OV-3 > 100 µM | SNB-19 > 100 µM | SNB-75 > 100 µM | TK-10 > 100 µM | UACC-62 27.5 µM | UO-31 31 µM

CCOC(=O)CC1(Cc2ccc(OCc3ccccc3)cc2)C(=O)OC(c2ccccc2)N1C(=O)c1ccccc1 (stereo not given)
inactive: 786-0 > 100 µM | A549 > 100 µM | BT-549 > 100 µM | HCC 2998 28 µM | KM12 > 100 µM | LOX IMVI > 100 µM | M14 > 100 µM | MDA-MB-435 > 100 µM | NCI-H226 > 100 µM | OVCAR-4 > 100 µM | RXF 393 > 100 µM | SF-539 > 100 µM | SK-MEL-2 > 100 µM | SK-OV-3 > 100 µM | SNB-19 > 100 µM | TK-10 > 100 µM | U-251 > 100 µM | UACC-62 > 100 µM | UO-31 45.5 µM

O=S(=O)(O)c1ccc(/N=N/c2ccc(/N=N/c3c(O)ccc4ccccc34)cc2)cc1
inactive: 786-0 > 100 µM | A549 > 100 µM | BT-549 > 100 µM | HCC 2998 > 100 µM | KM12 98.6 µM | LOX IMVI > 100 µM | M14 > 100 µM | MDA-MB-435 > 100 µM | NCI-H226 > 100 µM | OVCAR-4 > 100 µM | RXF 393 > 100 µM | SK-MEL-2 > 100 µM | SK-OV-3 > 100 µM | SNB-19 > 100 µM | SNB-75 > 100 µM | TK-10 > 100 µM | U-251 > 100 µM | UACC-62 > 100 µM | UO-31 > 100 µM

Cc1sc2nc3n(c(=O)c2c1C)N=C(c1ccc(Cl)cc1)CS3
inactive: 786-0 > 100 µM | A549 > 100 µM | BT-549 31.6 µM | HCC 2998 > 100 µM | KM12 > 100 µM | LOX IMVI > 100 µM | MDA-MB-435 > 100 µM | NCI-H226 > 100 µM | OVCAR-4 > 100 µM | RXF 393 > 100 µM | SF-539 > 100 µM | SK-OV-3 > 100 µM | SNB-75 48.2 µM | U-251 > 100 µM | UACC-62 > 100 µM | UO-31 > 100 µM

N=C(N)n1nc2c(c1O)CCC2
inactive: 786-0 > 100 µM | A549 > 100 µM | BT-549 > 100 µM | HCC 2998 > 100 µM | LOX IMVI > 100 µM | M14 > 100 µM | MDA-MB-435 > 100 µM | NCI-H226 > 100 µM | OVCAR-4 > 100 µM | RXF 393 > 100 µM | SF-539 > 100 µM | SK-MEL-2 > 100 µM | SK-OV-3 > 100 µM | SNB-19 > 100 µM | SNB-75 > 100 µM | TK-10 > 100 µM | U-251 > 100 µM | UACC-62 > 100 µM | UO-31 > 100 µM

O=C(NCCNCCCNC(=O)c1cc(-c2ccccc2)nc2ccccc12)c1cccc(O)c1O
inactive: 786-0 2.62 µM | A549 4.72 µM | BT-549 2.56 µM | HCC 2998 3.73 µM | KM12 4.44 µM | LOX IMVI 3.33 µM | M14 1.46 µM | MDA-MB-435 2.51 µM | NCI-H226 18.5 µM | RXF 393 4.84 µM | SF-539 2.48 µM | SK-MEL-2 2.8 µM | SK-OV-3 6.11 µM | SNB-19 2.1 µM | SNB-75 10.6 µM | TK-10 1.63 µM | U-251 2.87 µM | UACC-62 2.27 µM | UO-31 3.3 µM

From ChEMBL document CHEMBL1201862, “PubChem BioAssay data set” (2004)
